One assay relates to pregnancy in female Sprague Dawley rats. The assay is described as follows: Pregnancy termination activity in rats after a single subcutaneous injection at day 7 of gestation. Particulars: rat, single s.c. injection, dissolved in sesame oil containing 20% benzyl benzoate (or suspended if insoluble), autopsy day 16. The format is in vivo, rat (Sprague Dawley). As for the experimental part: In particular, female Sprague Dawley rats weighing 200-230 g were mated and the presence of sperm in the vagina was taken as evidence of mating. The day the sperm was detected, was considered day one of pregnancy. Pregnancy was later confirmed at the time of autopsy by the presence of implantation sites in the uterus.
Test compounds dissolved in sesame oil containing 20% benzyl benzoate (or suspended if insoluble), were administered subcutaneously, in a single injection, on day 7 of gestation. The animals were then autopsied on day 16 of pregnancy and the uteri were examined for evidence of pregnancy (implantation sites, fetal resorption or live fetuses), hemorrage, and evidence of abnormalities of the uterus, placenta or fetuses.
Regarding “1-acetyl-3(5)-(2-decanoyloxymethylphenyl)-5(3)-(3,4-dimethoxyphenyl)-1H-1,2,4-triazole [Example 10]”, the “ED50 (dose terminating pregnancy, absence of live fetuses, in 50% of the treated animals)” value came out at 4 mg/kg.

With “1-hexanoyl-3(5)-(2-hexanoyloxymethylphenyl)-5(3)-(3-methoxyphenyl)-1H-1,2,4-triazole [Example 11]”, the “ED50 (dose terminating pregnancy, absence of live fetuses, in 50% of the treated animals)” value is listed as 8 mg/kg.

The same assay, now with this note: sc, rat, single s.c. injection, dissolved in sesame oil containing 20% benzyl benzoate (or suspended if insoluble), autopsy day 16, read-out: ED50 (dose terminating pregnancy, absence of live fetuses, in 50% of the treated animals).
For the compound `COc1cccc(-c2n[nH]c(-c3ccccc3COC(C)=O)n2)c1` [5-(2-Acetyloxymethylphenyl)-3-(3-methoxyphenyl)-1H--1,2,4-triazole, reference compound], the median effective dose (ED50) was determined as 50 mg/kg.

For the compound `CCCCCCCC(=O)OCc1ccccc1-c1nc(-c2cccc(OC)c2)n[nH]1` [Example 1, 3-(3-methoxyphenyl)-5-(2-octanoyloxymethylphenyl)-1H-1,2,4-triazole], the ED50 was determined as 13 mg/kg.

Turning to `CCCCCCCCCCCC(=O)OCc1ccccc1-c1nc(-c2cccc(OC)c2)n[nH]1` [Example 2, 5-(2-dodecanoyloxymethylphenyl)-3-(3-methoxyphenyl)-1H-1,2,4-triazole], the median effective dose (ED50) came to 2 mg/kg.

Take `CCCCCCCC(=O)OCc1ccccc1-c1nc(-c2cccc(OCC)c2)n[nH]1` [Example 3, 3-(3-ethoxyphenyl)-5-(2-octanoyloxymethylphenyl)-1H-1,2,4-triazole]: the 50% effective dose (ED50) stood at 4 mg/kg.

In the case of `CCCCCCCCCC(=O)OCc1ccccc1-c1nc(-c2cccc(OC)c2)n[nH]1` [Example 4, 5-(2-decanoyloxymethylphenyl)-3-(3-methoxyphenyl)-1H-1,2,4-triazole], the ED50 was 2 mg/kg.

Turning to `CCCCCCCCCCCC(=O)OCc1ccccc1-c1nc(-c2ccc(OC)c(OC)c2)n[nH]1` [Example 6, 5-(2-dodecanoyloxymethylphenyl)-3-(3,4-dimethoxyphenyl)-1H-1,2,4-triazole], the 50% effective dose (ED50) turned out to be 2 mg/kg.

With `CCCCCCCCCC(=O)OCc1ccccc1-c1nc(-c2cccc(OCC)c2)n[nH]1` [Example 7], the ED50 was determined as 2 mg/kg.

On to `CCCCCCCCCC(=O)OCc1ccccc1-c1nc(-c2ccc(OC)c(OC)c2)n[nH]1` [Example 8, 5-(2-decanoyloxymethylphenyl)-3-(3,4-dimethoxyphenyl)-1H-1,2,4-triazole], for which the ED50 was 10 mg/kg.

On to `CCCCCC(=O)OCc1ccccc1-c1nc(-c2cccc(OCC)c2)n[nH]1` [Example 9, 3-(3-ethoxyphenyl)-5-(2-hexanoyloxymethylphenyl)-1H-1,2,4-triazole], for which the ED50 was determined as 7 mg/kg.

Still in this assay, the particulars now being: sc, rat, single s.c. injection, given suspended instead of dissolved, autopsy day 16, read-out: ED50 (dose terminating pregnancy, absence of live fetuses, in 50% of the treated animals).
`COc1cccc(-c2n[nH]c(-c3ccccc3CO)n2)c1` [5-(2-Hydroxymethylphenyl)-3-(3-methoxyphenyl)-1H--1,2,4-triazole, reference compound]: the ED50 stood at 40 mg/kg.

The values above are taken from patent US4535090A, “3,5-Diphenyl-1H-1,2,4-triazoles pharmaceutical compositions and uses” (Gruppo Lepetit S.p.A., priority 1981, dated 1985).
